15 compounds from EP0354714A2, “Pharmaceutical compositions containing polyaromatic compounds” (HADASSAH MEDICAL ORGANIZATION, priority 1988, dated 1990) can be followed below.

Assay [1] in a line: Minimum concentration that significantly prolongs APTT versus standard buffer solution. The conditions noted are these: concentration at which the polymeric components of the dye significantly prolonged APTT versus standard buffer solution. It counts as biochemical.
Assay [2] addresses T1, ESb mouse lymphoma heparanase (Mus musculus, UniProt Q6YGZ1).
T1 construct: endogenous in cells; host or cells: ESb mouse lymphoma cells
T1 sequence (Q6YGZ1 150-535 limits assumed): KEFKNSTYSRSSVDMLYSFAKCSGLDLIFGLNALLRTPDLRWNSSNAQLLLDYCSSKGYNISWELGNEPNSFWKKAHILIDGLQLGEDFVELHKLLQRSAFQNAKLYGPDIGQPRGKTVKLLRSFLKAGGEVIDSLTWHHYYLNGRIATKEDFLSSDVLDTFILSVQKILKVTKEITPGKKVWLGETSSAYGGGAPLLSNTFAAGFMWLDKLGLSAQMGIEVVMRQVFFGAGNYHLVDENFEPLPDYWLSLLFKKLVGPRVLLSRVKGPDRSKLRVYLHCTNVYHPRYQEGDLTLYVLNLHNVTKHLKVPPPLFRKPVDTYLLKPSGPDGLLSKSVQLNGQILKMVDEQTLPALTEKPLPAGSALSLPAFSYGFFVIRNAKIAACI
T1 sequence (Q6YGZ1 28-101 limits assumed): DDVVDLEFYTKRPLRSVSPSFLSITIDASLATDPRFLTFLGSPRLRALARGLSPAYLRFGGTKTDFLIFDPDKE
The experiment in a line: Inhibition of heparanase degradation of 35S-labelled ECM. It is filed as biochemical. The conditions noted are these: 10 µgr/ml, 24 hours; for Total low-mol-wt. HS fragments released by heparanase (cpm): control 17,756 cpm. As to the method: The ability of several of the above mentioned compounds to inhibit lymphoma-cell derived heparanse was tested in the assay system described by Vlodavsky et al. (Cancer Research. 43: 2704-2711 (1983). ³⁵S labled ECM was incubated for 24 hours with ESb mouse lymphoma heparanase in the presence of 10 ugr ml of the indicated compounds. Degradation of the sulfated glycosaminoglycan was followed by gel filtration of the supernatants. Heparanase activity is expressed as the total amount of labled low-molecular-weight fragments released from the ECM substrate. The results are summarized in Table III. Table III

The target in the next assay is T2, lipoprotein lipase (LPL) (Rattus norvegicus, UniProt Q06000).
T2 construct: endogenous in cells; host or cells: F1 heart cell cultures from newborn rat hearts (mainly non-beating mesenchymal cells)
T2 sequence (Q06000 28-474): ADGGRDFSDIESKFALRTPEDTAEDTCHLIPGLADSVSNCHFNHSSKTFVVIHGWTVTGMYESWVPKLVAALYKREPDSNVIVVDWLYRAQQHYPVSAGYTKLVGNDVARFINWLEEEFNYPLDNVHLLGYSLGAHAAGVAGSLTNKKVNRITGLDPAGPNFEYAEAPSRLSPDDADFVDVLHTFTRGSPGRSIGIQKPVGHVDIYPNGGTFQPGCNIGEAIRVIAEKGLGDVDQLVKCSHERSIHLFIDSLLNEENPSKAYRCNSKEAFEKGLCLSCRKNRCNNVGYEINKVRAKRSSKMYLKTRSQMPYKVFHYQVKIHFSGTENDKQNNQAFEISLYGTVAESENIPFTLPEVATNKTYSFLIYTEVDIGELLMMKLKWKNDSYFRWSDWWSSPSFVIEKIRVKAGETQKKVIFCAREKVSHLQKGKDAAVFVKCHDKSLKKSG
The experiment in a line: LPL activity in cultured heart cells and their medium after 24 hrs incubation. The settings on record: heart cells; for LPL activity: Total: control 3237; for LPL activity: Medium / LPL activity: Cells: mean±SEM of triplicates; for LPL activity: Medium: control 817±14; for LPL activity: Cells: control 2420±93. It counts as cell-based. As for the experimental part:
The enzyme LPL participate in the process of lipid transfer from the bloodstream to the tissues, LPL is bound to the external surface of cells via its association with cell-membrane glycosaminoglycans. Cultured heart cells is a powerful system in the study of the enzyme turn-over and the exploration of ways to manipulate its level since these cells are active in the biosynthesis of LPL, in addition to the surface binding of the enzyme.
F₁ heart cell cultures were prepared from newborn rat hearts as previously described (Chajek, T. et al., Biochem. Biophys. Acta 528, 456-474 (1978)). They consisted mainly of non-beating mesenchymal cells and were used 8-12 days after their isolation.
The enzyme activity was determined on aliquots of medium and of homogenates of cells which had been released from the petri dish with a rubber policeman in 1 ml of 0.025 M NH₃/NH₄Cl buffer (pH 8.1) containing 1 unit/ml of heparin. The assay system consisted of 0.1 ml of medium or 0.1 ml of cell homogenate ([…]) and 0.1 ml of substrate containing labeled triolein, prepared according to the method of Nilsson-Ehle and Schotz, (J. Lipid Res. 17, 536-541 (1976)). Incubations were carried out at 37°C for 45 min. The reaction was stopped by the addition of methanol/chloroform/heptane (1.4:1.25:1.v/v) and the extraction of fatty acids was performed according to the method of Belfrage and Vaughan (J. Lipid Res. 10, 341-344 (1969), as modified by Nilsson-Ehle and Schotz. Enzyme activity was calculated according to the formula of Nilsson-Ehle and Schotz.

The subject of the next assay is normal pooled plasma. The assay can be described thus: Activated partial thromboplastin time (APTT) in normal pooled plasma. It counts as biochemical. The settings on record: Concentration 0.2 mg/mL; normal pooled plasma alone 25 - 28 sec. As to the method:
Measurement of Activated Partial Thromboplastin Time (APTT)
Utilizing the following procedure, the activated partial thromboplastin time (APTT) was measured for each of comparative compounds A-D:
To an assay cuvette was added 100 ul of normal pooled plasma (George King Biomedical Inc., Kansas) and 100 ul of a solution containing one of the above compounds in aqueous 50 mM Tris hydrochloride at pH 7.5 (0.2 mg of sample in one mL buffer). The sample was placed in a MLA coagulation timer which automatically maintained the sample at 37°C for 2.5 minutes, injected 100 ul of actin activated cephaloplastin reagent, kept 5 minutes, injected 100 ul of 3 mM CaCl, and the clot formation was determined photometrically and the time recorded.

The nature of assay [3]: PTT in rats after oral administration. It counts as in vivo. The conditions noted are these: 1 ml of 10%-20% solution, after 2-4 hours, around 20 sec. at time 0. The source says: Moreover, since aluminon can be absorbed through the gastrointestinal tract, it can be used as an orally administratable anticoagulant (as opposed to heparin which has to be given by injection).

The subject of assay [4] is Bovine aortal smooth-muscle cells. The assay can be described thus: 3H thymidine incorporation in smooth muscle cells (resting, FGF- or thrombin-stimulated). It counts as cell-based. The settings on record: for H³ thymidine incorporation per well (cpm. mean of duplicates) +FGF: FGF 250 ngr/ml, without aluminon 22,574; for H³ thymidine incorporation per well (cpm. mean of duplicates) +FGF / H³ thymidine incorporation per well (cpm. mean of duplicates) Control / H³ thymidine incorporation per well (cpm. mean of duplicates) +Thrombin: 2 days; for H³ thymidine incorporation per well (cpm. mean of duplicates) Control: resting cells, without aluminon 9.823; for H³ thymidine incorporation per well (cpm. mean of duplicates) +Thrombin: thrombin 10⁻⁶M, without aluminon 54,000. As for the experimental part: Bovine aortal smooth-muscle cells were grown in tissue culture plates in the presence of glucose-rich medium (H-21). The cultures (around 35x10³ cells/well in 24 wells' plates) were initially supplemented with 10% fetal calf serum (FCS) for 2-3 days. The cell nutrition was then replaced by a serum-deprived medium (H-21 plus 0.2% FCS) in order to test the effect of defined growth factors on the proliferation of smooth-muscle cells and their possible inhibition by the compounds with heparin-like activity.
In the following representative experiment, the cells transferred to the serum-deprived medium were grown in the presence of thrombin (10⁻⁶M) or FGF (partially purified from bovine brain, 250 ngr/ml). Various concentrations of aluminon were added to the thrombin or FGF-treated cells and to non-treated control cultures. ³H thymidine was also added to all wells for an incubation period of 2 days. The cultures were then harvested and the ³H thymidine incorporated into DNA was measured.
For orientation: Incorporation of labelled thymidine or its analogues reports DNA synthesis.

One may read the % Inhibition as the change of the read-out against control, counted positive when it falls. Lower therefore signals little suppression.

As for `CN(C)c1ccc(C(=C2C=CC(=[N+](C)C)C=C2)c2ccccc2)cc1` [Malachite Green], the “Minimum Final Concentration” value in assay [1] was 150.0 µg/mL.

Regarding Methyl Violet, the “Minimum Final Concentration” value in assay [1] was determined as 75.0 µg/mL.

Consider `CCN(CC)c1ccc(C(=C2C=CC(=[N+](CC)CC)C=C2)c2ccc(N(CC)CC)cc2)cc1.[Cl-]` [Ethyl Violet], for which the “Minimum Final Concentration” value in assay [1] came out at 50.0 µg/mL.

With Brilliant Cresyl Blue, the “Minimum Final Concentration” value in assay [1] was determined as 150.0 µg/mL.

Turning to `Cc1cc(C(=C2C=CC(=N)C=C2)c2ccc(N)cc2)ccc1N` [Rosaniline Chloride], in assay [1], the “Minimum Final Concentration” value is 12.5 µg/mL.

As for `CCN(Cc1cccc(S(=O)(=O)O)c1)c1ccc(C(=C2C=CC(=[N+](CC)Cc3cccc(S(=O)(=O)O)c3)C=C2)c2ccc(O)cc2S(=O)(=O)[O-])cc1` [Fast Green], in assay [2], the “% Inhibition” value worked out at 32% and the “Total low-mol-wt. HS fragments released by heparanase (cpm)” value (“Total low-mol-wt. HS fragments released” below) is recorded as 12,139 cpm.

For the compound `CN(C)c1ccc(C(=C2C=CC(=[N+](C)C)C=C2)c2ccc([N+](C)(C)C)cc2)cc1.[Cl-].[Cl-]` [Methyl Green], in assay [1], the “Minimum Final Concentration” value was 50.0 µg/mL.

For the compound `O=S(=O)(O)c1ccc(N=C2C=CC(=C(c3ccc(Nc4ccc(S(=O)(=O)O)cc4)cc3)c3ccc(Nc4ccc(S(=O)(=O)O)cc4)cc3)C=C2)cc1` [Methyl Blue], in assay [2], the “% Inhibition” value is on record as 23% and the “Total low-mol-wt. HS fragments released” value was 13,676 cpm. Also, the “Minimum Final Concentration” value in assay [1] stood at 100.0 µg/mL.

Turning to Aniline Blue, the “Minimum Final Concentration” value in assay [1] turned out to be 150.0 µg/mL.

Take `Cc1cc2nc3cc(C)c(N)cc3[n+](-c3ccccc3)c2cc1N.[Cl-]` [Safranin O]: the “Minimum Final Concentration” value in assay [1] came to 150.0 µg/mL.

With `Cc1cc(-c2ccc(/N=N/c3ccc4c(S(=O)(=O)[O-])cc(S(=O)(=O)[O-])c(N)c4c3O)c(C)c2)ccc1/N=N/c1ccc2c(S(=O)(=O)[O-])cc(S(=O)(=O)[O-])c(N)c2c1O.[Na+].[Na+].[Na+].[Na+]` [Evan's Blue], at lipoprotein lipase (LPL) (Evan's Blue 10⁻³ M), the “% increase in the total” value is “+139.4%”, the “LPL activity: Total” value amounted to 7749 m mole FFA/h/dish, the “LPL activity: Medium” value is given as 6051±435 m mole FFA/h/dish and the “LPL activity: Cells” value was found to be 1698±184 m mole FFA/h/dish. For the same compound, at lipoprotein lipase (LPL) (Evan's Blue 10⁻⁴ M), the “% increase in the total” value is “+61.6%”, the “LPL activity: Total” value is recorded as 5230 m mole FFA/h/dish, the “LPL activity: Medium” value worked out at 2783±194 m mole FFA/h/dish and the “LPL activity: Cells” value was 2447±48 m mole FFA/h/dish. Besides, on lipoprotein lipase (LPL) (Evan's Blue 10⁻⁵ M), the “% increase in the total” value is on record as “+32.5%”, the “LPL activity: Total” value stood at 4288 m mole FFA/h/dish, the “LPL activity: Medium” value was determined as 1531±182 m mole FFA/h/dish and the “LPL activity: Cells” value worked out at 2757±114 m mole FFA/h/dish. Moreover, in assay [2], the “% Inhibition” value is 60% and the “Total low-mol-wt. HS fragments released” value is 6,986 cpm.

As to Basic Fuchsin, in assay [1], the “Minimum Final Concentration” value came to 50.0 µg/mL.

For `O=C(O)C1=CC(=C(c2ccc(O)c(C(=O)O)c2)c2ccc(O)c(C(=O)O)c2)C=CC1=O` [Comparative Compound C], in the assay on normal pooled plasma, the “APTT” value was 28 s.

Turning to `CN(C)c1ccc(C(=C2C=CC(=[N+](C)C)C=C2)c2ccc(N(C)C)cc2)cc1` [Crystal Violet], the “Minimum Final Concentration” value in assay [1] was 8.3 µg/mL.

In the case of `O=C(O)C1=CC(=C(c2ccc(O)c(C(=O)O)c2)c2ccc(O)c(C(=O)O)c2)C=CC1=O` [Aluminon, aurintricarboxylic acid], in assay [2], the “% Inhibition” value is 78%. The same compound had a PTT in assay [3] of more than 200 s. Also, the “H³ thymidine incorporation per well (cpm. mean of duplicates) +FGF” value in assay [4] (Aluminon 0.2 µgr/ml) is recorded as 22,256 cpm; in assay [4] (Aluminon 2 µgr/ml), 13,089 cpm; in assay [4] (Aluminon 10 µgr/ml) it was 6,846 cpm; in assay [4] (Aluminon 20 µgr/ml), 6,745 cpm. In addition, the “H³ thymidine incorporation per well (cpm. mean of duplicates) Control” value in assay [4] (Aluminon 0.2 µgr/ml) is recorded as 8,425 cpm; in assay [4] (Aluminon 2 µgr/ml), 5,120 cpm; in assay [4] (Aluminon 10 µgr/ml), 4,105 cpm; in assay [4] (Aluminon 20 µgr/ml) it was 4,343 cpm. For the same compound, the “H³ thymidine incorporation per well (cpm. mean of duplicates) +Thrombin” value in assay [4] (Aluminon 0.2 µgr/ml) was 46,857 cpm; in assay [4] (Aluminon 2 µgr/ml), 14,064 cpm; in assay [4] (Aluminon 10 µgr/ml), 6,877 cpm; in assay [4] (Aluminon 20 µgr/ml), 5,705 cpm. The inhibition entry in assay [4] (aluminon concentration of 2 µgr/ml (∼4x10⁻⁶M)) was “More than 40%”.
